From publication PMC12756740, “A GH42 β‑Galactosidase from the Human Isolate Bifidobacterium breve DSM 20213: Biochemical and Transgalactosylation Properties Reveal the Potential for Galacto-oligosaccharides Synthesis” (ACS Omega, 2025)

Target: T1, Bbreβgal-III (Bifidobacterium breve, UniProt D4BMY8)
T1 construct: gene BIFBRE_03435; pET21a(+) NdeI/NotI, His-tagged, E. coli BL21 Star (DE3), IMAC purified
Assay: o-nitrophenol release at […] nm, nonlinear fit with substrate inhibition model
Format: biochemical
Details: substrate inhibition constant; 50 mM sodium phosphate pH 6.5, 30 °C

T1 sequence (D4BMY8 1-691): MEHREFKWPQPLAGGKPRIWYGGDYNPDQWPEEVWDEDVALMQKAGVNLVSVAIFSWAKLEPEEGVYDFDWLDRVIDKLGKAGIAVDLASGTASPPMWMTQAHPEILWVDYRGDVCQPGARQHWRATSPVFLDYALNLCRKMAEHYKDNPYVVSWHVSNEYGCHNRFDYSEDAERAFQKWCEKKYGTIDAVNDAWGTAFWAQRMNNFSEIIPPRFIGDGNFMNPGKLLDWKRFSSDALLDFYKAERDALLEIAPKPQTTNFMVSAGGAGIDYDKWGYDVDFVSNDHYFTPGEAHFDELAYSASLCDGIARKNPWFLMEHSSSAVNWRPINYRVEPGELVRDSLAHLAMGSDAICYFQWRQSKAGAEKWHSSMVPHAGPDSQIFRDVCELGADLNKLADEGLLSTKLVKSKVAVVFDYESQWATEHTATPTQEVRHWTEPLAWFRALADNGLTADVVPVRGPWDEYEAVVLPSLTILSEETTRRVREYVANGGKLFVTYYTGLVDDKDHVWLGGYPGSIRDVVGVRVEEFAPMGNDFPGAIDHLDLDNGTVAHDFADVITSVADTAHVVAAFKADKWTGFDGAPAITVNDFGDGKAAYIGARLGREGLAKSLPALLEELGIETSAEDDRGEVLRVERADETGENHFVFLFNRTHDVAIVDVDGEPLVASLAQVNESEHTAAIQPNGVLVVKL

O=[N+]([O-])c1ccccc1O[C@@H]1O[C@H](CO)[C@H](O)[C@H](O)[C@H]1O [o-nitrophenyl-β-D-galactopyranoside]
k i,S: 13.84 ± 1.57 mM
